Key:
Assay type in all cases: in vivo
Details in all cases: 21 days after application
[1] = test system: Lolium multiflorum; assay: Further glasshouse test versus other ACCase-inhibiting herbicides, Table B2-1
Text: (§1) Further tests were employed to test the efficacy of a compound of Formula I versus other ACCase-inhibiting herbicides. The five main targets were Lolium multiflorum, Eleusine indica, Digitaria insularis, Sorghum halepense and Echinochloa crus-galli. Collectively, the populations contained all the major target-site resistance mutations affecting ACCase herbicides. Two L. multiflorum (LM-NTSR-1 and LM-NTSR-2) and one E. crus-galli (ECG-NTSR-1) populations were characterised exclusively by non-target-site resistance (“NTSR”). The target-site resistant L. multiflorum and E. indication populations were 100% homozygous for different ACCase mutations whilst the D. insularis, S. halepense and E. crus-galli samples contained a mixture of homozygous wild and mutant individuals at different genotypic frequencies. Additional underlying NTSR cannot be ruled out in the populations characterised by target-site resistance.
(§2) Around 50 seeds of each of the 24 weed populations were sown in 12-cm pots containing a mixture of peat and compost in a 1:1 ratio. The pots were watered, fertilised and kept in controlled glasshouse conditions set at 24° C./16 hr day, 18° C. night, 65% relative humidity, and a photon flux density of approximately 250 μmol quanta m^−2 s^−1 for Lolium multiflorum. The E. indica, D. insularis, S. halepense and E. crus-galli plants were kept in a separate glasshouse bay characterised by a 17 H photoperiod of 180 μmol m^−2 s^−1 with temperatures of 25° C. day and 19° C. night and 65% relative humidity. When the plants were at the two to four-leaf stage, they were treated with the various ACCase-inhibiting herbicides at 0, 15, 30, 60, 120 and 240 g ai ha^−1 in a spray cabinet mounted with a single mobile Teejet flat fan nozzle (11002VS) calibrated to deliver 200 L ha^−1 at 200 kPa. The L. multiflorum populations were treated by a compound of Formula Ic, clodinafop-propargyl, pinoxaden, cycloxydim and clethodim and the warm season grass weeds E. indica, D. insularis, S. halepense and E. crus-galli were sprayed with a Compound Ic and the commonly employed haloxyfop-methyl and clethodim. Three replicate pots were used per population. Plants were assessed for visual damage compared to the untreated control 21 days after application (0=0% damage; 100=100% damage).

[2] = test system: Eleusine indica; assay: Further glasshouse test versus other ACCase-inhibiting herbicides, Table B2-2
Text: as §1, §2

[3] = test system: Echinochloa Crus-galli; assay: Further glasshouse test versus other ACCase-inhibiting herbicides, Table B2-5
Text: as §1, §2

[4] = test system: Digitaria insularis; assay: Further glasshouse test versus other ACCase-inhibiting herbicides, Table B2-3
Text: as §1, §2

[5] = test system: Sorghum halepense; assay: Further glasshouse test versus other ACCase-inhibiting herbicides, Table B2-4
Text: as §1, §2

[6] = population LM-NTSR-1 (non-target-site resistance), 15 g/ha
[7] = population LM-NTSR-1 (non-target-site resistance), 30 g/ha
[8] = population LM-NTSR-1 (non-target-site resistance), 60 g/ha
[9] = population LM-NTSR-1 (non-target-site resistance), 120 g/ha
[10] = population LM-NTSR-1 (non-target-site resistance), 240 g/ha
[11] = population LM-NTSR-2 (non-target-site resistance), 15 g/ha
[12] = population LM-NTSR-2 (non-target-site resistance), 30 g/ha
[13] = population LM-NTSR-2 (non-target-site resistance), 60 g/ha
[14] = population LM-NTSR-2 (non-target-site resistance), 120 g/ha
[15] = population LM-NTSR-2 (non-target-site resistance), 240 g/ha

Measured: visual damage

C#CCOC(=O)[C@@H](C)Oc1ccc(Oc2ncc(Cl)cc2F)cc1 [Clodinafop-propargyl, clodinafop-propargyl]
98%: [1]; biotype Sensitive, 30 g/ha
0%: [1]; biotype C2088R, 15 g/ha | [1]; biotype C2088R, 30 g/ha | [1]; biotype C2088R, 60 g/ha | [1]; biotype C2088R, 120 g/ha | [1]; biotype D2078G, 15 g/ha | [1]; biotype D2078G, 30 g/ha | [1]; biotype D2078G, 60 g/ha | [1]; biotype D2078G, 120 g/ha | [1]; biotype D2078G, 240 g/ha | [1]; biotype W1999S, 15 g/ha | [1]; biotype W1999S, 30 g/ha | [1]; biotype W1999S, 60 g/ha | [1]; biotype W1999S, 120 g/ha | [1]; biotype W1999S, 240 g/ha | [1]; biotype W2027C, 15 g/ha | [1]; biotype W2027C, 30 g/ha | [1]; biotype W2027C, 60 g/ha | [1]; biotype W2027C, 120 g/ha | [1]; biotype W2027C, 240 g/ha | [1]; [6] | [1]; [7] | [1]; [8] | [1]; [11] | [1]; [12] | [1]; [13] | [1]; [14] | [1]; [15]
100%: [1]; biotype Sensitive, 60 g/ha | [1]; biotype Sensitive, 120 g/ha | [1]; biotype Sensitive, 240 g/ha
67%: [1]; biotype Sensitive, 15 g/ha
33%: [1]; biotype I1781L, 240 g/ha
27%: [1]; [9]
10%: [1]; biotype I1781L, 120 g/ha
52%: [1]; [10]
7%: [1]; biotype C2088R, 240 g/ha | [1]; biotype I1781L, 15 g/ha | [1]; biotype I1781L, 30 g/ha | [1]; biotype I1781L, 60 g/ha

CCCC(=NOCC)C1=C(O)CC(C2CCCSC2)CC1=O (stereo not drawn) [Cycloxydim, cycloxydim]
0%: [1]; biotype C2088R, 15 g/ha | [1]; biotype C2088R, 30 g/ha | [1]; biotype C2088R, 60 g/ha | [1]; biotype C2088R, 120 g/ha | [1]; biotype C2088R, 240 g/ha | [1]; biotype D2078G, 15 g/ha | [1]; biotype D2078G, 30 g/ha | [1]; biotype D2078G, 60 g/ha | [1]; biotype I1781L, 15 g/ha | [1]; biotype I1781L, 30 g/ha | [1]; biotype Sensitive, 15 g/ha | [1]; biotype Sensitive, 30 g/ha | [1]; biotype Sensitive, 60 g/ha | [1]; biotype W1999S, 15 g/ha | [1]; biotype W1999S, 30 g/ha | [1]; biotype W1999S, 60 g/ha | [1]; biotype W1999S, 120 g/ha | [1]; biotype W1999S, 240 g/ha | [1]; biotype W2027C, 15 g/ha | [1]; biotype W2027C, 30 g/ha | [1]; biotype W2027C, 60 g/ha | [1]; biotype W2027C, 120 g/ha | [1]; [6] | [1]; [7] | [1]; [8] | [1]; [11] | [1]; [12] | [1]; [13] | [1]; [14] | [1]; [15]
60%: [1]; [10]
3%: [1]; biotype D2078G, 120 g/ha | [1]; [9]
50%: [1]; biotype W2027C, 240 g/ha
13%: [1]; biotype I1781L, 120 g/ha | [1]; biotype I1781L, 240 g/ha
7%: [1]; biotype D2078G, 240 g/ha | [1]; biotype I1781L, 60 g/ha
100%: [1]; biotype Sensitive, 240 g/ha
88%: [1]; biotype Sensitive, 120 g/ha

COC(=O)C(C)Oc1ccc(Oc2ncc(C(F)(F)F)cc2Cl)cc1 (stereo not drawn) [Haloxyfop-p-methyl, haloxyfop-methyl]
93%: [4]; biotype W2027C, 60 g/ha | [5]; biotype Sensitive, 15 g/ha
38%: [5]; biotype W2027C, 15 g/ha
60%: [2]; biotype D2078G, 60 g/ha
30%: [2]; biotype G2096A, 120 g/ha | [2]; biotype W2027C, 120 g/ha
50%: [5]; biotype W2027C, 30 g/ha
33%: [2]; biotype W2027C, 240 g/ha
53%: [2]; biotype G2096A, 240 g/ha | [4]; biotype W2027C, 30 g/ha
0%: [2]; biotype D2078G, 15 g/ha | [2]; biotype D2078G, 30 g/ha | [2]; biotype I2041N, 15 g/ha | [2]; biotype I2041N, 60 g/ha | [2]; biotype I2041N, 240 g/ha | [2]; biotype W2027C, 15 g/ha | [2]; biotype W2027C, 30 g/ha
17%: [2]; biotype W2027C, 60 g/ha
68%: [5]; biotype W2027C, 60 g/ha | [5]; biotype W2027C, 120 g/ha
76%: [4]; biotype W2027C, 15 g/ha
7%: [2]; biotype I2041N, 30 g/ha
73%: [3]; biotype W2027C, 60 g/ha | [3]; population ECG-NTSR-1 (non-target-site resistance), 15 g/ha
95%: [2]; biotype D2078G, 120 g/ha
87%: [3]; population ECG-NTSR-1 (non-target-site resistance), 30 g/ha
10%: [2]; biotype I2041N, 120 g/ha
3%: [2]; biotype G2096A, 15 g/ha | [2]; biotype G2096A, 30 g/ha | [3]; biotype W2027C, 15 g/ha
100%: [2]; biotype Sensitive, 15 g/ha | [2]; biotype Sensitive, 30 g/ha | [2]; biotype Sensitive, 60 g/ha | [2]; biotype Sensitive, 120 g/ha | [2]; biotype Sensitive, 240 g/ha | [3]; biotype Sensitive, 15 g/ha | [3]; biotype Sensitive, 30 g/ha | [3]; biotype Sensitive, 60 g/ha | [3]; biotype Sensitive, 120 g/ha | [3]; biotype Sensitive, 240 g/ha | [3]; biotype W2027C, 120 g/ha | [3]; biotype W2027C, 240 g/ha | [3]; population ECG-NTSR-1 (non-target-site resistance), 60 g/ha | [3]; population ECG-NTSR-1 (non-target-site resistance), 120 g/ha | [3]; population ECG-NTSR-1 (non-target-site resistance), 240 g/ha | [4]; biotype Sensitive, 15 g/ha | [4]; biotype Sensitive, 30 g/ha | [4]; biotype Sensitive, 60 g/ha | [4]; biotype Sensitive, 120 g/ha | [4]; biotype Sensitive, 240 g/ha | [4]; biotype W2027C, 120 g/ha | [4]; biotype W2027C, 240 g/ha | [5]; biotype Sensitive, 30 g/ha | [5]; biotype Sensitive, 60 g/ha | [5]; biotype Sensitive, 120 g/ha | [5]; biotype Sensitive, 240 g/ha
78%: [5]; biotype W2027C, 240 g/ha
88%: [2]; biotype D2078G, 240 g/ha
75%: [3]; biotype W2027C, 30 g/ha
23%: [2]; biotype G2096A, 60 g/ha

CCc1cc(C)cc(CC)c1-c1c(OC(=O)C(C)(C)C)n2n(c1=O)CCOCC2 [Pinoxaden, pinoxaden]
62%: [1]; biotype W2027C, 60 g/ha
97%: [1]; [8]
90%: [1]; biotype D2078G, 240 g/ha
33%: [1]; biotype W1999S, 240 g/ha
10%: [1]; biotype D2078G, 60 g/ha | [1]; biotype W2027C, 30 g/ha
65%: [1]; [14]
73%: [1]; biotype I1781L, 120 g/ha
27%: [1]; biotype I1781L, 60 g/ha
7%: [1]; biotype I1781L, 15 g/ha | [1]; biotype I1781L, 30 g/ha | [1]; biotype W1999S, 120 g/ha
45%: [1]; biotype D2078G, 120 g/ha
100%: [1]; biotype Sensitive, 15 g/ha | [1]; biotype Sensitive, 30 g/ha | [1]; biotype Sensitive, 60 g/ha | [1]; biotype Sensitive, 120 g/ha | [1]; biotype Sensitive, 240 g/ha | [1]; biotype W2027C, 240 g/ha | [1]; [9] | [1]; [10]
93%: [1]; biotype W2027C, 120 g/ha
0%: [1]; biotype C2088R, 15 g/ha | [1]; biotype C2088R, 30 g/ha | [1]; biotype C2088R, 60 g/ha | [1]; biotype W1999S, 15 g/ha | [1]; biotype W1999S, 30 g/ha | [1]; biotype W1999S, 60 g/ha | [1]; biotype W2027C, 15 g/ha | [1]; [11] | [1]; [12] | [1]; [13]
3%: [1]; biotype C2088R, 120 g/ha | [1]; biotype D2078G, 15 g/ha | [1]; biotype D2078G, 30 g/ha
30%: [1]; biotype C2088R, 240 g/ha | [1]; [6]
98%: [1]; biotype I1781L, 240 g/ha
85%: [1]; [7]
53%: [1]; [15]

Source: US20260215428A1, “WEED CONTROL METHOD” (SYNGENTA CROP PROTECTION AG, priority 2023, published 2026)
